The source made the active and inactive calls. Rule as the data show it, for most assays here: actives have a measured IC50 and inactives only a lower limit.
Columns and labels:
[1] = target: T1, X-box-binding protein 1 (Homo sapiens, UniProt P17861); assay type: functional, Cricetulus griseus;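 also: confirmatory dose-response counter-screen serving a CHOP assay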
T1 sequence (P17861 whole entry): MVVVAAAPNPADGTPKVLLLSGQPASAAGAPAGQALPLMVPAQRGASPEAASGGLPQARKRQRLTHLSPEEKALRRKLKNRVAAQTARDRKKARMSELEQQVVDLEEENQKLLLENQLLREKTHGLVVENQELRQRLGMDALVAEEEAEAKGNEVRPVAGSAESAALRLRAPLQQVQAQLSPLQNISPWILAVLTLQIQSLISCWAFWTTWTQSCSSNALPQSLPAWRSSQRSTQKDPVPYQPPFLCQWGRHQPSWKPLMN

[2] = target: T2, SUMO-activating enzyme (Homo sapiens, UniProt Q9UBT2); assay: inhibitors of in vitro SUMOylation cascade, primary screen, biochemical, HTRF, uHTS (AID 2006); assay type: protein-complex assay
T2 sequence (Q9UBE0 whole entry): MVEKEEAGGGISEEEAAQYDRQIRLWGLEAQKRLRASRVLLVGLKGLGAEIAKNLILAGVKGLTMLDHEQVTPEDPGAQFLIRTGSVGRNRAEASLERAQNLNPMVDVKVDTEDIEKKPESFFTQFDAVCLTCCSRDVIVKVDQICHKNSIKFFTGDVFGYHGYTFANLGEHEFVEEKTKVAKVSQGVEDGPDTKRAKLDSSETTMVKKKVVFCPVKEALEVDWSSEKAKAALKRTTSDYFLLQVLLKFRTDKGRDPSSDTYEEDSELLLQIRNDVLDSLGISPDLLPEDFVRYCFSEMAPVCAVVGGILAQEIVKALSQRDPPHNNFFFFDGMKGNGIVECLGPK
T2 sequence (Q9UBT2 whole entry): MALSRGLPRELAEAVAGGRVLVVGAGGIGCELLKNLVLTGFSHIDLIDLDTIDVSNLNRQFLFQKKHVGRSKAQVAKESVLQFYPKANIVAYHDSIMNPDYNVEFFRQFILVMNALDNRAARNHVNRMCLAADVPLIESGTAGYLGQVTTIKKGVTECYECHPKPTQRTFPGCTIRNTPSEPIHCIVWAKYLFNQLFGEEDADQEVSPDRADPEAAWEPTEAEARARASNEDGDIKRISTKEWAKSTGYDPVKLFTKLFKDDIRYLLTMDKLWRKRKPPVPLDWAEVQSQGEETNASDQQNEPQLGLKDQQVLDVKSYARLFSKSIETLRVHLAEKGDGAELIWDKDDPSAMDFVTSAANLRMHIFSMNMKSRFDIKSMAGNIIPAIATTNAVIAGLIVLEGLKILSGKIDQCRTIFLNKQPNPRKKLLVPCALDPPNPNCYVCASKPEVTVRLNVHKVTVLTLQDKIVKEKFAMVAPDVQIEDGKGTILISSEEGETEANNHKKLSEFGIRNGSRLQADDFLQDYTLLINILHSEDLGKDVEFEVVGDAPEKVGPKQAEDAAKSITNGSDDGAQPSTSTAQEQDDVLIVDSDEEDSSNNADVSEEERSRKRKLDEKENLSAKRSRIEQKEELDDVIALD

[3] = target: T2, SUMO-activating enzyme; assay: SUMOylation inhibitor hit validation, confirmation, SUMOylation inhibitor project, biochemical, AlphaScreen (AID 2018); assay type: functional
[4] = target: SUMO E1/E2 (Homo sapiens, UniProt P63279+Q9UBE0+Q9UBT2); assay: SAR analysis of SUMOylation using HTRF in an in-Vitro dose response assay. [Related pubchem assays (depositor defined):AID2006, AID2011, AID2018, AID2069, AID2658]; assay type: functional
Chain of SUMO E1/E2 (Q9UBE0 whole entry): as the sequence (Q9UBE0 whole entry) above
Chain of SUMO E1/E2 (Q9UBT2 whole entry): as the sequence (Q9UBT2 whole entry) above
Chain of SUMO E1/E2 (P63279 whole entry): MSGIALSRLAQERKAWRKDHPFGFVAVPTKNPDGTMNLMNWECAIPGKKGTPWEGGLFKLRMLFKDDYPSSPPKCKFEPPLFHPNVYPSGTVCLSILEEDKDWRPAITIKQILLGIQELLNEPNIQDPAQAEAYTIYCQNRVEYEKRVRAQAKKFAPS

[5] = target: T3, Long-chain-fatty-acid--AMP ligase FadD28 (Mycobacterium tuberculosis, UniProt P9WQ59); assay: Fluorescence polarization aasay to screen for inhibitors that compete for the binding of FadD28 to a bisubstrate Measured in Biochemical System Using Plate Reader - 2147-01_Inhibitor_Dose_CherryPick_Activity.; assay type: functional, Mycobacterium tuberculosis H37Rv
T3 sequence (P9WQ59 whole entry): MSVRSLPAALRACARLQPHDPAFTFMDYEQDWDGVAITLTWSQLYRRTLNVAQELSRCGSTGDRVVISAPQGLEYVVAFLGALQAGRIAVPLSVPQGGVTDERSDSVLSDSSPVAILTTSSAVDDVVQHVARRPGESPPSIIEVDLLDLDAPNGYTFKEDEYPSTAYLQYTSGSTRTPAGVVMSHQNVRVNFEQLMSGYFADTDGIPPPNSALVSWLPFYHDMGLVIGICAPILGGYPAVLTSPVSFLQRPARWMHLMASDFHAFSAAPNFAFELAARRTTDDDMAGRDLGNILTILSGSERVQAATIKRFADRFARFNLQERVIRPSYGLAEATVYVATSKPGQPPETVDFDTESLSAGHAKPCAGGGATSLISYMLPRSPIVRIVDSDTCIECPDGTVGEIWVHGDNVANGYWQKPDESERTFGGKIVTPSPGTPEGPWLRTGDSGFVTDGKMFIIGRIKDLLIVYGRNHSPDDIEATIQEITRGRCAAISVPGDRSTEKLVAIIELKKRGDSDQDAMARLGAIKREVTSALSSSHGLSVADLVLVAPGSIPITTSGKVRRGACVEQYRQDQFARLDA

In the case of `CCCCn1c(NS(=O)(=O)c2ccccc2)c(S(=O)(=O)c2ccc(C)cc2)c2nc3ccccc3nc21`, the “Absolute IC50 (XBP1)” value [1] is reported as 10 µM, the IC50 [2] is reported as 1.83 µM (active) and the IC50 [3] is reported as 0.68 µM (active). The IC50 [4] was 4.2 µM (active) and the AC50 [5] was 46.5 µM (active).

From ChEMBL document CHEMBL1201862, “PubChem BioAssay data set” (2004)
